Measurements from patent publication US20080096868A1, “1,4 Substituted Pyrazolopyrimidines as Kinase Inhibitors” (priority 2004, published 2008).

Biological target: T1, EphB4 kinase (Homo sapiens, UniProt P54760)
T1 construct: made in house; host or cells: Sf9 or Sf21 insect cells (baculovirus)
T1 sequence (P54760 566-987): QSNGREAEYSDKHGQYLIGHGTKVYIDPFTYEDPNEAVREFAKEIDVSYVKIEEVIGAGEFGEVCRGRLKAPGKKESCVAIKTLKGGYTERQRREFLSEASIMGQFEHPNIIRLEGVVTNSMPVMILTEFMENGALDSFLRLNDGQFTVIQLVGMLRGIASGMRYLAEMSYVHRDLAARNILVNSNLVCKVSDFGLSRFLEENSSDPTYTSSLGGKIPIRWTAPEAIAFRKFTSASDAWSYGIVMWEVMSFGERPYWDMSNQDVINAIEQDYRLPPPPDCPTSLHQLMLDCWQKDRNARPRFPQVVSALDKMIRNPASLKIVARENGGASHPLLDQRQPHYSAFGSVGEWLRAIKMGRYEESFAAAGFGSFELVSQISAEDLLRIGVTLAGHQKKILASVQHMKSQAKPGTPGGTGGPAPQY
Test: Inhibition of EphB4 kinase activity (33P incorporation into poly(Glu,Tyr), filter assay)
Format: biochemical
Settings: purified GST-EphB4, 2.0-3.0 μM ATP, poly(Glu,Tyr) 4:1; read-out: IC50 (μmol/l), Inhibition of EphB4 kinase
Description: Generation of Bac-to-Bac™ (Invitrogen Life Technologies, Basel, Switzerland) GST-fusion expression vectors: Entire cytoplasmatic coding regions of the EphB-class are amplified by PCR from cDNA libraries derived from human placenta or brain, respectively. Recombinant baculovirus are generated that express the amino acid region 566-987 of the human EphB4 receptor (SwissProt Database, Accession No. P54760). GST sequence is cloned into pFastBac1® vector (Invitrogen Life Technologies, Basel, Switzerland) and PCR amplified. cDNAs encoding EphB4-receptor domains, respectively are cloned in frame 3′prime to the GST sequence into this modified FastBac1 vector to generate pBac-to-Bac™ donor vectors. Single colonies arising from the transformation are inoculated to give overnight cultures for small scale plasmid preparation. […] By automated sequencing the inserts and approximately 50 bp of the flanking vector sequences are confirmed on both strands.
Production of viruses: Viruses for each of the kinases are made according to the protocol supplied by GIBCO if not stated otherwise. In brief, transfer vectors containing the kinase domains are transfected into the DH10Bac cell line (GIBCO) and plated on selective agar plates. Colonies without insertion of the fusion sequence into the viral genome (carried by the bacteria) are blue. Single white colonies are picked and viral DNA (bac-mid) isolated from the bacteria by standard plasmid purification procedures. Sf9 cells or Sf21 cells are then transfected in 25 cm^2 flasks with the viral DNA using Cellfectin reagent according to the protocol. […]
Protein kinase assays: The activities of protein kinases are assayed in the presence or absence of inhibitors, by measuring the incorporation of ^33P from [γ^33P]ATP into a polymer of glutamic acid and tyrosine (poly(Glu,Tyr)) as a substrate. […] Membranes are counted after drying at ambient temperature, mounting in Packard TopCount96-well frame, and addition of 10 μL/well of Microscint™ (Packard). […]

Compound | IC50 [µmol/L]
COc1ccc(-n2ncc3c(Nc4ccccc4C)ncnc32)cc1 [Example 21, [1-(4-Methoxy-phenyl)-1H-pyrazolo[3,4-d]pyrimidin-4-yl]-o-tolyl-amine] | 0.16
COc1ccc(-n2ncc3c(Nc4cc(F)ccc4C)ncnc32)cc1 [Example 23, (5-Fluoro-2-methyl-phenyl)-[1-(4-methoxy-phenyl)-1H-pyrazolo[3,4-d]pyrimidin-4-yl]-amine] | 0.5
Cc1cccc(C)c1Nc1nc(CCCN(C)C)nc2c1cnn2-c1ccccc1 [Example 27, [6-(3-Dimethylamino-propyl)-1-phenyl-1H-pyrazolo[3,4-d]pyrimidin-4-yl]-(2,6-dimethyl-phenyl)-amine] | 0.4
